# Assays:
# NCIH446 = test: OncoPanel cell proliferation assay, NCIH446; format: cell-based, human; conditions: for Cell Count Activity Area: NCIH446, scale 0-10
# Method: (§1) Cells were grown in RPMI 1640, 10% FBS, 2 mM L-alanyl-L-glutamine, 1 mM Na pyruvate, or a special medium. Cells were seeded into 384-well plates and incubated in a humidified atmosphere of 5% CO2 at 37° C. Compounds were added the day following cell seeding. At the same time, a time zero untreated cell plate was generated. After a 3-day incubation period, cells were fixed and stained to allow fluorescence imaging of nuclei. Compounds (1 mM stock solutions) were serially diluted in half-log steps from the highest test concentration ([…]), and assayed over 10 concentrations with a maximum assay concentration of 0.1% DMSO. Automated fluorescence microscopy was carried out using a Molecular Devices ImageXpress Micro XL high-content imager, and images were collected with a 4× objective. 16-bit TIFF images were acquired and analyzed with MetaXpress 5.1.0.41 software.
# (§2) Cell proliferation was measured by the fluorescence intensity of an incorporated nuclear dye. The output is referred to as the relative cell count, where the measured nuclear intensity is transformed to percent of control (POC) using the following formula: […]
# (§3) Cellular response parameters were calculated using nonlinear regression to a sigmoidal single-site dose response model:
# (§4) Where y is a response measured at concentration x, A and B are the lower and upper limits of the response, C is the concentration at the response midpoint (EC50), and D is the Hill Slope (Ref. 1).
# (§5) EC50 is the test compound concentration at the curve inflection point or half the effective response (parameter C of the fitted curve solution). GI50 is the concentration needed to reduce the observed growth by half (midway between the curve maximum and the time zero value). “Cell Count Activity Area” is an estimate of the integrated area above the curve (Barretina, et al. The Cancer Cell Line Encyclopedia enables predictive modelling of anticancer drug sensitivity. Nature 483: 603-607). […] In rare instances, values <0 or >10 may be observed. […] Curve-fitting, calculations, and report generation was performed using a custom data reduction engine and MathIQ based software (AIM).
# A388 = test: OncoPanel cell proliferation assay, A388; format: cell-based, human
# Method: as §1, with “Cells” for “Cells were grown in RPMI 1640, 10% FBS, 2 mM L-alanyl-L-glutamine, 1 mM Na pyruvate, or a special medium. Cells”
# as §2, §3, §4
# (§6) GI50 is the concentration needed to reduce the observed growth by half (midway between the curve maximum and the time zero value). […] In rare instances, values <0 or >10 may be observed. […] Curve-fitting, calculations, and report generation was performed using a custom data reduction engine and MathIQ based software (AIM).
# SK-MEL-28 = test: OncoPanel cell proliferation assay, SK-MEL-28; format: cell-based, human; conditions: for Cell Count Activity Area: SK-MEL-28, scale 0-10
# Method: as §1, §2, §3, §4, §5
# Hs 729 = test: OncoPanel cell proliferation assay, Hs 729; format: cell-based, human; conditions: for Cell Count Activity Area: Hs 729, scale 0-10
# Method: as §1, §2, §3, §4, §5
# RKOE6 = test: OncoPanel cell proliferation assay, RKOE6; conditions: RKOE6, scale 0-10
# Method: Cells were seeded into 384-well plates and incubated in a humidified atmosphere of 5% CO2 at 37° C. Compounds were added the day following cell seeding. At the same time, a time zero untreated cell plate was generated. After a 3-day incubation period, cells were fixed and stained to allow fluorescence imaging of nuclei. Compounds (1 mM stock solutions) were serially diluted in half-log steps from the highest test concentration (1 micromol), and assayed over 10 concentrations with a maximum assay concentration of 0.1% DMSO. Automated fluorescence microscopy was carried out using a Molecular Devices ImageXpress Micro XL high-content imager, and images were collected with a 4× objective. 16-bit TIFF images were acquired and analyzed with MetaXpress 5.1.0.41 software.
# SW684 = test: OncoPanel cell proliferation assay, SW684; format: cell-based, human
# Method: as §1, with “Cells” for “Cells were grown in RPMI 1640, 10% FBS, 2 mM L-alanyl-L-glutamine, 1 mM Na pyruvate, or a special medium. Cells”
# as §2, §3, §4, §6
# CML-T1 = test: OncoPanel cell proliferation assay, CML-T1; format: cell-based, human; conditions: CML-T1, scale 0-10
# Method: as §1, §2, §3, §4, §5
# CaOV3 = test: OncoPanel cell proliferation assay, CaOV3; format: cell-based, human; conditions: for Cell Count Activity Area: CaOV3, scale 0-10
# Method: as §1, §2, §3, §4, §5
# NCI-H510A = test: OncoPanel cell proliferation assay, NCI-H510A; format: cell-based, human; conditions: for Cell Count Activity Area: scale 0-10
# Method: as §1, §2, §3, §4, §5
# SCaBER = test: OncoPanel cell proliferation assay, SCaBER; format: cell-based, human; conditions: scale 0-10
# Method: as §1, §2, §3, §4, §5
# AGS = test: OncoPanel cell proliferation assay, AGS; format: cell-based, human; conditions: scale 0-10
# Method: as §1, §2, §3, §4, §5
# CRO-AP2 = test: OncoPanel cell proliferation assay, CRO-AP2; format: cell-based, human; conditions: CRO-AP2, scale 0-10
# Method: as §1, §2, §3, §4, §5
# SNU-5 = test: OncoPanel cell proliferation assay, SNU-5; format: cell-based, human
# Method: as §1, with “Cells” for “Cells were grown in RPMI 1640, 10% FBS, 2 mM L-alanyl-L-glutamine, 1 mM Na pyruvate, or a special medium. Cells”
# as §2, §3, §4, §6
compound,measurement,setting,value
"CO[C@H]1C[C@@H]2CC[C@@H](C)[C@@](O)(O2)C(=O)C(=O)N2CCCC[C@H]2C(=O)O[C@H]([C@H](C)C[C@@H]2CC[C@@H](O)[C@H](OC)C2)CC(=O)[C@H](C)/C=C(\C)[C@@H](O)[C@@H](OC)C(=O)[C@H](C)C[C@H](C)/C=C/C=C/C=C/1C [Rapamycin, reference compound]",EC50,"NCIH446; Homo sapiens, NCI-H446, 72 h, NCIH446, 3-day incubation, read-out: Cell Count EC50",> 1000 nM
same,IC50,"NCIH446; Homo sapiens, NCI-H446, 72 h, NCIH446, 3-day incubation, read-out: Cell Count IC50",> 1000 nM
same,Cell Count Activity Area,NCIH446,1.69
same,EC50,"A388; Homo sapiens, 72 h, A388, 3-day incubation, read-out: Cell Count EC50",> 1000 nM
same,GI50,"A388; Homo sapiens, 72 h, A388, 3-day incubation, read-out: Cell Count GI50",> 1000 nM
same,IC50,"A388; Homo sapiens, 72 h, A388, 3-day incubation, read-out: Cell Count IC50",> 1000 nM
same,IC50,"SK-MEL-28; Homo sapiens, 72 h, SK-MEL-28, 3-day incubation, read-out: Cell Count IC50",> 1000 nM
same,Cell Count Activity Area,SK-MEL-28,2.50
same,EC50,"Hs 729; Homo sapiens, 72 h, Hs 729, 3-day incubation, read-out: Cell Count EC50",> 1000 nM
same,GI50,"Hs 729; Homo sapiens, 72 h, Hs 729, 3-day incubation, read-out: Cell Count GI50",> 1000 nM
same,IC50,"Hs 729; Homo sapiens, 72 h, Hs 729, 3-day incubation, read-out: Cell Count IC50",> 1000 nM
same,Cell Count Activity Area,Hs 729,0.55
same,Cell Count Activity Area,RKOE6,4.61
same,IC50,"SW684; Homo sapiens, 72 h, SW684, 3-day incubation, read-out: Cell Count IC50",> 1000 nM
same,Cell Count Activity Area,"SW684; SW684, scale 0-10",2.81
same,Cell Count Activity Area,CML-T1,4.56
same,Cell Count Activity Area,CaOV3,2.40
same,EC50,"CaOV3; Homo sapiens, Caov-3, 72 h, CaOV3, 3-day incubation, read-out: Cell Count EC50",> 1000 nM
same,GI50,"CaOV3; Homo sapiens, Caov-3, 72 h, CaOV3, 3-day incubation, read-out: Cell Count GI50",> 1000 nM
same,IC50,"CaOV3; Homo sapiens, Caov-3, 72 h, CaOV3, 3-day incubation, read-out: Cell Count IC50",> 1000 nM
same,EC50,"NCI-H510A; Homo sapiens, 72 h, 3-day incubation, read-out: Cell Count EC50",> 1000 nM
same,GI50,"NCI-H510A; Homo sapiens, 72 h, 3-day incubation, read-out: Cell Count GI50",> 1000 nM
same,IC50,"NCI-H510A; Homo sapiens, 72 h, 3-day incubation, read-out: Cell Count IC50",> 1000 nM
same,Cell Count Activity Area,NCI-H510A,1.63
same,Cell Count Activity Area,SCaBER,5.25
same,Cell Count Activity Area,AGS,5.67
same,Cell Count Activity Area,CRO-AP2,6.22
same,GI50,"SNU-5; Homo sapiens, 72 h, SNU-5, 3-day incubation, read-out: Cell Count GI50",24 nM
same,IC50,"SNU-5; Homo sapiens, 72 h, SNU-5, 3-day incubation, read-out: Cell Count IC50",> 1000 nM
"CN[C@@H]1C[C@H]2O[C@@](C)([C@@H]1OC)n1c3ccccc3c3c4c(c5c6ccccc6n2c5c31)C(=O)NC4 [Staurosporine, reference compound]",Cell Count Activity Area,NCIH446,2.81
same,Cell Count Activity Area,"A388; A388, scale 0-10",4.99
same,Cell Count Activity Area,SK-MEL-28,2.81
same,Cell Count Activity Area,Hs 729,4.06
same,Cell Count Activity Area,RKOE6,3.96
same,GI50,"SW684; Homo sapiens, 72 h, SW684, 3-day incubation, read-out: Cell Count GI50",0.95 nM
same,Cell Count Activity Area,CML-T1,4.13
same,Cell Count Activity Area,CaOV3,5.31
same,Cell Count Activity Area,NCI-H510A,1.68
same,Cell Count Activity Area,SCaBER,6.03
same,Cell Count Activity Area,AGS,6.19
same,Cell Count Activity Area,CRO-AP2,3.99
same,Cell Count Activity Area,"SNU-5; SNU-5, scale 0-10",2.58
